Literature values, collected in patent US20040128703A1, “Methods and compositions for the generation of humanized mice” (priority 2002, published 2004).
Where two headings read alike, the source gives them in different places.

Experiments:
human PXR [1] = target: T1, human PXR (Homo sapiens, UniProt O75469); details: transgenic mice, native PXR partially deleted, human PXR gene targeted to the liver
T1 sequence (O75469 1-434): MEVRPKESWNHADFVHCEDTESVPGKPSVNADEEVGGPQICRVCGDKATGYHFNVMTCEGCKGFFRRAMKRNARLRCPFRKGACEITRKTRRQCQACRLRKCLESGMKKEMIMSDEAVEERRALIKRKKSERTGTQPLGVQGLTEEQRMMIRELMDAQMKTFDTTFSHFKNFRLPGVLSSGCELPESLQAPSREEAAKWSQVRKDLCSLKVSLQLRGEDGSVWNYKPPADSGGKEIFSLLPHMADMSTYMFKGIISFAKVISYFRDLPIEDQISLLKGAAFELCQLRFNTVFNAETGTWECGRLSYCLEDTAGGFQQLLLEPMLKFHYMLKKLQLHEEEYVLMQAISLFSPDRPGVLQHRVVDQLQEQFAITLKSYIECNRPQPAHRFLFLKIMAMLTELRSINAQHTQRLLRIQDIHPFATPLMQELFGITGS

human PXR [2] = target: T1, human PXR; details: human PXR transfected into rat hepatocytes
[3] = system: CYP3A expression in rat hepatocytes

| SMILES | P-glycoprotein induction (P-glycoprotein) | CYP3A expression in rat hepatocytes transfected with human PXR (human PXR [2]) | CYP3A4 expression in human liver (CYP3A4 expression) | effect on CYP3A expression in rat hepatocytes [3] | further results |
| --- | --- | --- | --- | --- | --- |
| O=C(O)c1cn(C2CC2)c2cc(N3CCNCC3)c(F)cc2c1=O [Ciprofloxacin] | – | – | – | – | susceptibility of bacteria (gram-negative bacilli; 1994, US): 86%; susceptibility of bacteria (gram-negative bacilli; 2000, US): 76% |
| CCOP(=O)(OCC)C(=Cc1cc(C(C)(C)C)c(O)c(C(C)(C)C)c1)P(=O)(OCC)OCC [SR12813] | induced | – | – | – | – |
| CC(=O)O[C@H]1C(=O)[C@@]2(C)[C@H]([C@H](OC(=O)c3ccccc3)[C@]3(O)C[C@H](OC(=O)[C@H](O)[C@@H](NC(=O)c4ccccc4)c4ccccc4)C(C)=C1C3(C)C)[C@]1(OC(C)=O)CO[C@@H]1C[C@@H]2O [Taxol] | induced | – | – | – | – |
| Clc1ccccc1C(c1ccccc1)(c1ccccc1)n1ccnc1 [clotrimazole] | – | able to stimulate CYP3A expression | stimulate CYP3A4 expression | no effect | CYP3A expression in the mouse (human PXR [1]): induced CYP3A expression |
| CCC1(c2ccccc2)C(=O)NC(=O)NC1=O [phenobarbital] | – | able to stimulate CYP3A expression | stimulate CYP3A4 expression | no effect | – |
